This is an account of results in PMC8113097 (Bioorganic & medicinal chemistry letters, 2021).

Series [1] concerns the target T1, LDHA (Homo sapiens, UniProt P00338). The experiment in a line: LDHA enzyme inhibition. The series is classed as biochemical. The settings on record: 6g vs 6f.
For a further series, the target named is LDHB (Homo sapiens, UniProt P07195). Briefly: LDHB enzyme inhibition. Format: biochemical.
Series [2] concerns the target T1, LDHA. The experiment in a line: Binding to LDHA by SPR. The settings on record: for SPR τ: residence time on LDHA.
A further series can be described thus: Rat microsomal stability. The series is classed as in vitro ADME. The settings on record: microsomal data.
The nature of a further series: PAMPA permeability. The series is classed as in vitro ADME.
Series [3] concerns A673 Ewing's Sarcoma line. Briefly: Inhibition of proliferation. The series is classed as cell-based. The settings on record: A673 cells.

LDHB, sequence (P07195 whole entry): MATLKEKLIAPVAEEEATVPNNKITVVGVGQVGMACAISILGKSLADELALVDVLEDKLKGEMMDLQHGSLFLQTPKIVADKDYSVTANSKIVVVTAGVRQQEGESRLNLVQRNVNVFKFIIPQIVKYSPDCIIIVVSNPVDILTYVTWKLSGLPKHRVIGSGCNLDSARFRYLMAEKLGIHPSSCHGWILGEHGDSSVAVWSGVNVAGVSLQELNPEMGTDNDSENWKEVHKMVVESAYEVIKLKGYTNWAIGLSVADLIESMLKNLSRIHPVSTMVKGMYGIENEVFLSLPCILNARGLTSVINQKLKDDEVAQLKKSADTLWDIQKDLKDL

As to `NS(=O)(=O)c1ccc(Cc2cn(-c3nc(C(=O)O)cs3)nc2-c2cccc(OCc3cccnc3)c2)cc1` [6g], the “fold less potent in LDHA inhibition compared with 6f” value at LDHA [1] is listed as ~ 3 fold.
With `NS(=O)(=O)c1ccc(Cc2c(-c3ccc(F)c(OCC4CC4(F)F)c3)nn(-c3nc(C(=O)O)cs3)c2CC2CC2)cc1F` (centres unmarked) [12b], inhibition at LDHB was half-maximal at 3 nM (IC50). Besides, on LDHA [2], the “binding to LDHA by SPR (in words)” value is recorded as “very tight binding”, the “residence time / dissociation kinetics by SPR (in words)” value (shortened to “residence time / dissociation kinetics”) is given as “long residence times” and the “SPR τ” value was 21,052 s. Also, the “metabolic stability (in words)” value in the series “Rat microsomal stability” was “reasonable”. Moreover, the “PAMPA Perm” value in the series “PAMPA permeability” came out at 4.9 ×10⁻⁶ cm/s.
`NS(=O)(=O)c1ccc(Cc2c(-c3ccc(F)c(OC4CC4)c3)nn(-c3nc(C(=O)O)cs3)c2CC2CC2)cc1F` [12e] displayed an IC50 at LDHB of 3 nM. On LDHA [2], the “binding to LDHA by SPR (in words)” value is on record as “very tight binding”, the “residence time / dissociation kinetics” value is reported as “long residence times” and the “SPR τ” value is recorded as 19,230 s. Besides, the “metabolic stability (in words)” value in the series “Rat microsomal stability” is given as “reasonable”. For the same molecule, in “PAMPA permeability”, the “PAMPA Perm” value is 5.8 ×10⁻⁶ cm/s.
With `NS(=O)(=O)c1ccc(Cc2c(-c3cccc(OCc4ccccc4)c3)nn(-c3nc(C(=O)O)cs3)c2CC2CC2)cc1F` [12g], half-maximal inhibition on LDHB (IC50) required 5 nM. For the same molecule, in series [3], the “proliferation IC50 values (in words)” value was “submicromolar”. On LDHA [2], the “SPR τ” value is given as 88,496 s. In addition, in the series “PAMPA permeability”, the “PAMPA Perm” value came out at 1.1 ×10⁻⁶ cm/s.
Consider `NS(=O)(=O)c1ccc(Cc2c(-c3ccc(F)c(OCc4cccc(F)c4)c3)nn(-c3nc(C(=O)O)cs3)c2CC2CC2)cc1F` [12h], for which it took 5 nM to reach half-maximal inhibition at LDHB (IC50). In addition, the “proliferation IC50 values (in words)” value in series [3] was “submicromolar”. On LDHA [2], the “binding to LDHA by SPR (in words)” value was “very tight binding”, the “residence time / dissociation kinetics” value was “long residence times” and the “SPR τ” value is on record as 13,568 s. In the series “Rat microsomal stability”, the “metabolic stability (in words)” value was “quite poor”. For the same molecule, the “PAMPA Perm” value in “PAMPA permeability” is 2.9 ×10⁻⁶ cm/s.
In turn, `NS(=O)(=O)c1ccc(Cc2c(-c3ccc(F)c(OCc4ccc(C(F)(F)F)o4)c3)nn(-c3nc(C(=O)O)cs3)c2CC2CC2)cc1F` [12j] returned a half-inhibitory concentration (IC50) against LDHB of 6 nM. In addition, the “proliferation IC50 values (in words)” value in series [3] is “submicromolar”. Besides, at LDHA [2], the “binding to LDHA by SPR (in words)” value is recorded as “very tight binding”, the “residence time / dissociation kinetics” value is listed as “long residence times” and the “SPR τ” value is reported as 100,000 s. Further, the “PAMPA Perm” value in “PAMPA permeability” was found to be 12 ×10⁻⁶ cm/s.
`Cc1ccc(Oc2cc(-c3nn(-c4nc(C(=O)O)cs4)c(CC4CC4)c3Cc3ccc(S(N)(=O)=O)c(F)c3)ccc2F)cc1` [12p] yielded an IC50 on LDHB of 19 nM. The “proliferation IC50 values (in words)” value in series [3] is “submicromolar”. For the same molecule, at LDHA [2], the “binding to LDHA by SPR (in words)” value is listed as “very tight binding”, the “residence time / dissociation kinetics” value is on record as “long residence times” and the “SPR τ” value is on record as 9,708 s. Moreover, the “metabolic stability (in words)” value in the series “Rat microsomal stability” is recorded as “quite poor”. Further, in “PAMPA permeability”, the “PAMPA Perm” value came to 13 ×10⁻⁶ cm/s.
Turning to `NS(=O)(=O)c1ccc(Cc2c(-c3cccc(N4CCOCC4)c3)nn(-c3nc(C(=O)O)cs3)c2CC2CC2)cc1F` [13a], the IC50 on LDHB came to 8 nM. At LDHA [2], the “residence time / dissociation kinetics” value is on record as “faster dissociation kinetics” and the “SPR τ” value worked out at 286 s. For the same molecule, the “PAMPA Perm” value in “PAMPA permeability” was found to be 1.6 ×10⁻⁶ cm/s.
The matching figures for `NS(=O)(=O)c1ccc(Cc2c(-c3cccc(Nc4ccccc4)c3)nn(-c3nc(C(=O)O)cs3)c2CC2CC2)cc1` [13h]: 1 nM, “faster dissociation kinetics”, 59 s and 4.4 ×10⁻⁶ cm/s.
For the molecule `NS(=O)(=O)c1ccc(Cc2c(-c3ccc(F)c(NC(=O)c4ccccc4)c3)nn(-c3nc(C(=O)O)cs3)c2CC2CC2)cc1F` [13i], on LDHB, the midpoint of inhibition, the IC50, lay at 2 nM. Further, the “metabolic stability (in words)” value in the series “Rat microsomal stability” was “good stability”. Further, the “PAMPA Perm” value in “PAMPA permeability” worked out at 6.4 ×10⁻⁶ cm/s.
On LDHB, `NS(=O)(=O)c1ccc(Cc2c(-c3ccc(F)c(C(=O)N4CCCC4)c3)nn(-c3nc(C(=O)O)cs3)c2CC2CC2)cc1F` [14b] yielded a 50% inhibitory concentration (IC50) of 4 nM. For the same molecule, the “metabolic stability (in words)” value in “Rat microsomal stability” is “good stability”. Moreover, the “PAMPA Perm” value in the series “PAMPA permeability” stood at 5.7 ×10⁻⁶ cm/s.
The molecule `NS(=O)(=O)c1ccc(Cc2c(-c3ccc(F)c(C(=O)NCc4ccccc4)c3)nn(-c3nc(C(=O)O)cs3)c2CC2CC2)cc1F` [14d] had an IC50 at LDHB of 2 nM. For the same molecule, the “PAMPA Perm” value in “PAMPA permeability” was 8.7 ×10⁻⁶ cm/s.
